Results as given in patent publication US20070128217A1 (priority 2003, published 2007).

Assays:
[1] = test system: control sera (pooled serum of ten healthy LUMC hospital workers; commercial negative donor pooled serum from the Dutch bloodbank); assay type: binding, human; set-up: Binding of Control serum LUMC to linear peptides / Binding of Control serum Blood-bank to linear peptides / Binding of Control serum LUMC to looped peptides / Binding of Control Serum Blood-Bank to Looped peptides / Binding of Control serum LUMC to linear peptides of the protein M of SARS-CoV Urbani / Binding of Control serum Blood-bank to linear peptides of the protein M of SARS-CoV Urbani / Binding of Control serum LUMC to looped peptides of the protein M of SARS-CoV Urbani / Binding of Control Serum Blood-Bank to Looped peptides of the protein M of SARS-CoV Urbani: unit not given here
[2] = test system: antibodies in sera from SARS patients (sera 1a, 1b, 2, 6, 37, 62, London, SARS-yellow, SARS-green); assay type: binding, human; set-up: Binding of serum 6 to linear peptides of protein X1 of SARS-CoV Urbani / Binding of serum 37 to linear peptides of protein X1 of SARS-CoV Urbani / Binding of serum 6 to looped/cyclic peptide (PEPSCAN-ELISA) / Binding of serum 37 to looped/cyclic peptide (PEPSCAN-ELISA) / Binding of serum 37 to looped/cyclic peptides of protein X1 of SARS-CoV Urbani / Binding of serum 6 to linear peptides of protein X2 / Binding of serum 37 to linear peptides of protein X2 / Binding of serum 37 to looped/cyclic peptides of protein X2 of SARS-CoV Urbani / Binding of serum 6 to linear peptides of protein M of SARS-CoV Urbani / Binding of serum 37 to linear peptides of protein M of SARS-CoV Urbani / Binding of serum 6 to looped/cyclic peptides of protein M of SARS-CoV Urbani / Binding of serum 37 to looped/cyclic peptides of protein M of SARS-CoV Urbani / Binding of serum 6 to linear peptides of protein X3 of SARS-CoV Urbani / Binding of serum 37 to linear peptides of protein X3 of SARS-CoV Urbani / Binding of serum 37 to looped/cyclic peptides of protein X3 of SARS-CoV Urbani / Binding of serum 6 to linear peptides of protein X4 of SARS-CoV Urbani / Binding of serum 37 to linear peptides of protein X4 of SARS-CoV Urbani / Binding of serum 37 to looped/cyclic peptides of protein X4 of SARS-CoV Urbani / Binding of serum 6 to linear peptides of protein X5 of SARS-CoV Urbani / Binding of serum 37 to linear peptides of protein X5 of SARS-CoV Urbani / Binding of serum 37 to looped/cyclic peptides of protein X5 of SARS-CoV Urbani / Binding of serum 6 to linear peptides of protein N of SARS-CoV Urbani / Binding of serum 37 to linear peptides of protein N of SARS-CoV Urbani / Binding of serum 6 to linear peptide (PEPSCAN-ELISA) / Binding of serum 1a to looped/cyclic peptides of protein N of SARS-CoV Urbani / Binding of serum 1b to looped/cyclic peptides of protein N of SARS-CoV Urbani / Binding of serum 2 to looped/cyclic peptides of protein N of SARS-CoV Urbani / Binding of serum 6 to looped/cyclic peptides of protein N of SARS-CoV Urbani / Binding of serum 37 to looped/cyclic peptides of protein N of SARS-CoV Urbani / Binding of serum 62 to looped/cyclic peptides of protein N of SARS-CoV Urbani / Binding of serum London to looped/cyclic peptides of protein N of SARS-CoV Urbani / Binding of serum SARS-green to looped/cyclic peptides of protein N of SARS-CoV Urbani: unit not given here
[3] = test system: rabbit serum obtained by immunizing a rabbit with the SARS-CoV strain Frankfurt 1; assay type: binding; set-up: Binding of a rabbit serum to linear peptides / Binding of a rabbit serum to looped peptides / Rabbit serum linear peptides / Rabbit serum looped peptides / Binding of a rabbit serum to linear peptides of protein N of SARS-CoV Urbani (Rabbit serum linear peptides) / Binding of a rabbit serum to looped/cyclic peptides of protein N of SARS-CoV Urbani (Rabbit serum looped peptides): unit not given here
[4] = test system: recombinant human anti-SARS-CoV antibody 03-018; assay type: binding; set-up: Binding of antibody 03-018 to linear peptides of the N protein of SARS-CoV Urbani / Binding of antibody 03-018 to looped/cyclic peptides of the N protein of SARS-CoV Urbani: unit not given here

Row | Sequence | Binding of serum 1a to linear peptides of protein N of SARS-CoV Urbani [2] | Binding of serum 1a to looped/cyclic peptides of protein N of SARS-CoV Urbani [2] | Binding of serum 1b to linear peptides of protein N of SARS-CoV Urbani [2] | Binding of serum 1b to looped/cyclic peptides of protein N of SARS-CoV Urbani [2] | Binding of serum 2 to linear peptides of protein N of SARS-CoV Urbani [2] | Binding of serum 2 to looped/cyclic peptides of protein N of SARS-CoV Urbani [2] | Binding of serum 6 to linear peptides of protein N of SARS-CoV Urbani [2] | Binding of serum 6 to looped/cyclic peptides of protein N of SARS-CoV Urbani [2] | Binding of serum 37 to linear peptides of protein N of SARS-CoV Urbani [2] | Binding of serum 37 to looped/cyclic peptides of protein N of SARS-CoV Urbani [2] | Binding of serum 62 to linear peptides of protein N of SARS-CoV Urbani [2] | Binding of serum 62 to looped/cyclic peptides of protein N of SARS-CoV Urbani [2] | Binding of serum London to linear peptides of protein N of SARS-CoV Urbani [2] | Binding of serum London to looped/cyclic peptides of protein N of SARS-CoV Urbani [2] | Binding of serum SARS-green to looped/cyclic peptides of protein N of SARS-CoV Urbani [2] | Binding of serum SARS-yellow to looped/cyclic peptides of protein N of SARS-CoV Urbani [2] | Binding of a rabbit serum to linear peptides of protein N of SARS-CoV Urbani (Rabbit serum linear peptides) [3] | Binding of a rabbit serum to looped/cyclic peptides of protein N of SARS-CoV Urbani (Rabbit serum looped peptides) [3] | Binding of antibody 03-018 to linear peptides of the N protein of SARS-CoV Urbani [4] | Binding of antibody 03-018 to looped/cyclic peptides of the N protein of SARS-CoV Urbani [4] | further results
1 | PTVTLLPAADMDDFS | 0.3 | 0.2 | 0.2 | 0.2 | 0.2 | 0.3 | 0.1 | 0.1 | 1.4 | 0.4 | 0.9 | 0.2 | 0.6 | 0.2 | 0.7 | 0.1 | 0.1 | 0.0 | 0.1 | 0.2 | Control Serum Blood-Bank Looped peptides [1]: 0.3; Control serum Blood-bank linear peptides [1]: 0.8; Control serum LUMC linear peptides [1]: 0.7; Control serum LUMC looped peptides [1]: 0.3; Binding of serum SARS-green to linear peptides of protein N of SARS-CoV Urbani [2]: 1.9; Binding of serum SARS-yellow to linear peptides of protein N of SARS-CoV Urbani [2]: 0.7
2 | PRGQGVPINTNSGPD | 0.2 | 0.2 | 0.1 | 0.1 | 0.1 | 0.2 | 0.1 | 0.1 | 0.6 | 0.3 | 0.4 | 0.2 | 0.4 | 0.2 | 0.1 | 0.1 | 0.1 | 0.0 | 0.1 | 0.2 | Binding of Control Serum Blood-Bank to Looped peptides [1]: 0.4; Binding of Control serum Blood-bank to linear peptides [1]: 0.7; Binding of Control serum LUMC to linear peptides [1]: 0.5; Binding of Control serum LUMC to looped peptides [1]: 0.3; Binding of serum SARS-green to linear peptides of protein N of SARS-CoV Urbani [2]: 0.2; Binding of serum SARS-yellow to linear peptides of protein N of SARS-CoV Urbani [2]: 0.6
3 | EELRFPRGQGVPINT | 0.2 | 0.6 | 0.1 | 0.4 | 0.3 | 0.8 | 0.2 | 0.5 | 0.7 | 1.0 | 0.7 | 1.2 | 0.5 | 0.7 | 0.9 | 0.8 | 0.1 | 0.6 | 0.1 | 0.3 | Binding of Control Serum Blood-Bank to Looped peptides [1]: 1.3; Binding of Control serum Blood-bank to linear peptides [1]: 0.8; Binding of Control serum LUMC to linear peptides [1]: 0.8; Binding of Control serum LUMC to looped peptides [1]: 1.1; Binding of serum SARS-green to linear peptides of protein N of SARS-CoV Urbani [2]: 0.4; Binding of serum SARS-yellow to linear peptides of protein N of SARS-CoV Urbani [2]: 0.6
4 | ESKVSGKGQQQQGQT | – | 0.6 | – | 0.4 | – | 0.8 | – | 0.4 | – | 0.7 | – | 0.7 | – | 0.8 | 0.7 | 0.9 | 0.1 | 0.6 | 0.1 | 0.2 | Binding of Control Serum Blood-Bank to Looped peptides [1]: 1.1; Binding of Control serum Blood-bank to linear peptides [1]: 0.7; Binding of Control serum LUMC to linear peptides [1]: 0.8; Binding of Control serum LUMC to looped peptides [1]: 0.9; Binding of serum 1a to linear peptide (PEPSCAN-ELISA) [2]: 0.2; Binding of serum 1b to linear peptide (PEPSCAN-ELISA) [2]: 0.1; Binding of serum 2 to linear peptide (PEPSCAN-ELISA) [2]: 0.2; Binding of serum 6 to linear peptide (PEPSCAN-ELISA) [2]: 0.2; Binding of serum 37 to linear peptide (PEPSCAN-ELISA) [2]: 0.6; Binding of serum 62 to linear peptide (PEPSCAN-ELISA) [2]: 0.7; Binding of serum London to linear peptide (PEPSCAN-ELISA) [2]: 0.5; Binding of serum SARS-green to linear peptide (PEPSCAN-ELISA) [2]: 0.4; Binding of serum SARS-yellow to linear peptide (PEPSCAN-ELISA) [2]: 0.7
